Experiments:
[1] = test system: MCF-7 breast cancer cells; assay: MCF-7 proliferation / cell viability assay; assay type: cell-based; settings: Homo sapiens, MCF7; MCF-7 proliferation with 0.1 nM 17-beta estradiol; read-out: IC50 (anti-proliferation)
In short: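 Survival ratio, with vehicle (DMSO) as 100%, was derived from Coulter-counted viable cell numbers. Cells were grown in 5% FBS DMEM and dosed for 5 days across six concentrations between 10^−10 M and 10^−5 M.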

ERα = target: T1, ERα (Homo sapiens, UniProt P03372); assay: ER degradation in MCF-7 cells (Western blot); assay type: cell-based; settings: for DC50: ER degradation, 24 hours; for Dmax: MCF7, Maximal ER degradation, read-out: Dmax
T1 construct: endogenous in cells; host or cells: MCF-7
T1 sequence (P03372 1-595): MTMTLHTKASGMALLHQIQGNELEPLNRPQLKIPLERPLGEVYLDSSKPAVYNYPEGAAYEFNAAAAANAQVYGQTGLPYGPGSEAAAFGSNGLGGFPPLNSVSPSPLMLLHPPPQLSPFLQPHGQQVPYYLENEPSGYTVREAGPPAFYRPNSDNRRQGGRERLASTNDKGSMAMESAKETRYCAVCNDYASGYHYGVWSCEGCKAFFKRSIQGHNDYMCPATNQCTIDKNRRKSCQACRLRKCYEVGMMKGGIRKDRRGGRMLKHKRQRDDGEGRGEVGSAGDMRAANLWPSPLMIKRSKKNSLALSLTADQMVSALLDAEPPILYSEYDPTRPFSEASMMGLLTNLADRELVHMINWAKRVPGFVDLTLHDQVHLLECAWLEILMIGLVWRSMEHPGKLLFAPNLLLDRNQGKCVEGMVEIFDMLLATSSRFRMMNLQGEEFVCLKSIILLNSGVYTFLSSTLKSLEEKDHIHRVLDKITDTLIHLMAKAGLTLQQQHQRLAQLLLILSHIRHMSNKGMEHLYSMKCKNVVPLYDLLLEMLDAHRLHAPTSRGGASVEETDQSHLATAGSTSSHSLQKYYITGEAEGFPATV
In short: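 ERα levels assessed by Western blot (50 μg lysate protein, infrared scanner) after 24-hour exposure of MCF-7 cells to varied compound concentrations. Values reported as DC50, the concentration halving ER expression, and Dmax, the maximal ER reduction achieved across tested concentrations.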

ST1799 PDX tumor = assay: ST1799 patient derived breast tumor xenograft; assay type: in vivo; settings: single agent versus vehicle control, p=0.0323; athymic nude female mice
Source text: In Vivo Efficacy of Exemplary Compound 69 in ST1799 Patient Derived Breast Tumor Xenocraft
Patient-Derived Xenograft tumor fragments were harvested from host animals and implanted into 6-12 week old athymic nude female mice (Charles River NU(NCr)-Foxn1^nu). Treatment initiated at a mean tumor volume of approximately 175-300 mm^3.

ER = target: T2, ER (Homo sapiens, UniProt P03372); assay: ER antagonism (T47D ERE luciferase), T47d-kb-Luc cells; assay type: cell-based; settings: read-out: IC50 (ER antagonistm)
T2 construct: endogenous in cells; host or cells: T47d-kb-Luc (T47D stably transfected with a luciferase reporter gene only)
T2 sequence (P03372 1-595): T1 sequence (P03372 1-595)
In short: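 Five sample concentrations, each in quadruplicate and repeated in at least three experiments, were tested for blocking of estradiol activity. Values were expressed relative to the estradiol control. The cell system was the T47d-kb-Luc stable breast cancer line.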

Compound | IC50 [1] [nM] | DC50 (ERα) [nM] | Dmax (ERα) [%] | IC50 (ER) [nM] | tumor growth inhibition (ST1799 PDX tumor)
CC/C(=C(/c1ccc(OCCN2CCN(CC3CCN(c4ccc5c(c4)CN([C@H]4CCC(=O)NC4=O)C5=O)CC3)CC2)cc1)c1ccc(B(O)O)cc1)c1ccccc1 [Compound 69] | < 10 | < 10 | > 90 | < 10 | statistically significant tumor growth inhibition
CC/C(=C(/c1ccc(B(O)O)cc1)c1ccc(N2CCN(C(=O)N3CCN(c4ccc5c(c4)CN([C@H]4CCC(=O)NC4=O)C5=O)CC3)CC2)cc1)c1ccccc1 [Compound 107, (S,E)-(4-(1-(4-(4-(4-(2-(2,6-dioxopiperidin-3-yl)-1-oxoisoindolin-5-yl)piperazine-1-carbonyl)piperazin-1-yl)phenyl)-2-phenylbut-1-en-1-yl)phenyl)boronic acid] | < 10 | < 10 | > 90 | < 10 | 
CC/C(=C(/c1ccc(B(O)O)cc1)c1ccc(N2CCN(C(=O)N3CCN(c4ccc5c(c4)CN([C@@H]4CCC(=O)NC4=O)C5=O)CC3)CC2)cc1)c1ccccc1 [Compound 108, (R,E)-(4-(1-(4-(4-(4-(2-(2,6-dioxopiperidin-3-yl)-1-oxoisoindolin-5-yl)piperazine-1-carbonyl)piperazin-1-yl)phenyl)-2-phenylbut-1-en-1-yl)phenyl)boronic acid] | < 10 | < 10 | > 90 | < 10 | 
CC/C(=C(\c1ccc(B(O)O)cc1)c1ccc(N2CCN(C(=O)N3CCC(CN4CCN(c5ccc6c(c5)CN(C5CCC(=O)NC5=O)C6=O)CC4)CC3)CC2)cc1)c1ccccc1 (stereo not drawn) [Compound 114, (Z)-(4-(1-(4-(4-(4-((4-(2-(2,6-dioxopiperidin-3-yl)-1-oxoisoindolin-5-yl)piperazin-1-yl)methyl)piperidine-1-carbonyl)piperazin-1-yl)phenyl)-2-phenylbut-1-en-1-yl)phenyl)boronic acid] | < 10 | < 10 | > 90 | < 10 | 

Continued, in another order:

IC50 [1] [nM] | DC50 (ERα) [nM] | Dmax (ERα) [%] | IC50 (ER) [nM] | Compound | tumor growth inhibition (ST1799 PDX tumor)
10 to 50 | 10 to 50 | > 90 | < 10 | CC/C(=C(\c1ccc(O)cc1)c1ccc(N2CCN(C(=O)N3CCC(N4CCN(c5ccc6c(c5)CN(C5CCC(=O)NC5=O)C6=O)CC4)CC3)CC2)cc1)c1ccccc1 (stereo not drawn) [Compound 109, (E)-3-(5-(4-(1-(4-(4-(1-(4-hydroxyphenyl)-2-phenylbut-1-en-1-yl)phenyl)piperazine-1-carbonyl)piperidin-4-yl)piperazin-1-yl)-1-oxoisoindolin-2-yl)piperidine-2,6-dione] | 
10 to 50 | 10 to 50 | > 90 | < 10 | CC/C(=C(\c1ccc(B(O)O)cc1)c1ccc(N2CCN(C(=O)N3CCC(N4CCN(c5ccc6c(c5)CN(C5CCC(=O)NC5=O)C6=O)CC4)CC3)CC2)cc1)c1ccccc1 (stereo not drawn) [Compound 110, (Z)-(4-(1-(4-(4-(4-(4-(2-(2,6-dioxopiperidin-3-yl)-1-oxoisoindolin-5-yl)piperazin-1-yl)piperidine-1-carbonyl)piperazin-1-yl)phenyl)-2-phenylbut-1-en-1-yl)phenyl)boronic acid] | 
10 to 50 | 10 to 50 | > 90 | < 10 | CC/C(=C(/c1ccc(O)cc1)c1ccc(N2CCN(C(=O)N3CCC(N4CCN(c5ccc6c(c5)CN(C5CCC(=O)NC5=O)C6=O)CC4)CC3)CC2)cc1)c1ccccc1 (stereo not drawn) [Compound 111, (Z)-3-(5-(4-(1-(4-(4-(1-(4-hydroxyphenyl)-2-phenylbut-1-en-1-yl)phenyl)piperazine-1-carbonyl)piperidin-4-yl)piperazin-1-yl)-1-oxoisoindolin-2-yl)piperidine-2,6-dione] | 
10 to 50 | 10 to 50 | > 90 | < 10 | CC/C(=C(/c1ccc(B(O)O)cc1)c1ccc(N2CCN(C(=O)N3CCC(N4CCN(c5ccc6c(c5)CN(C5CCC(=O)NC5=O)C6=O)CC4)CC3)CC2)cc1)c1ccccc1 (stereo not drawn) [Compound 112, (E)-(4-(1-(4-(4-(4-(4-(2-(2,6-dioxopiperidin-3-yl)-1-oxoisoindolin-5-yl)piperazin-1-yl)piperidine-1-carbonyl)piperazin-1-yl)phenyl)-2-phenylbut-1-en-1-yl)phenyl)boronic acid] | 
< 10 | < 10 | > 90 | < 10 | CC/C(=C(\c1ccc(O)cc1)c1ccc(N2CCN(C(=O)N3CCC(CN4CCN(c5ccc6c(c5)CN(C5CCC(=O)NC5=O)C6=O)CC4)CC3)CC2)cc1)c1ccccc1 (stereo not drawn) [Compound 113, (E)-3-(5-(4-((1-(4-(4-(1-(4-hydroxyphenyl)-2-phenylbut-1-en-1-yl)phenyl)piperazine-1-carbonyl)piperidin-4-yl)methyl)piperazin-1-yl)-1-oxoisoindolin-2-yl)piperidine-2,6-dione] | 
< 10 | < 10 | > 90 | < 10 | CC/C(=C(/c1ccc(O)cc1)c1ccc(N2CCN(C(=O)N3CCC(CN4CCN(c5ccc6c(c5)CN(C5CCC(=O)NC5=O)C6=O)CC4)CC3)CC2)cc1)c1ccccc1 (stereo not drawn) [Compound 115, (Z)-3-(5-(4-((1-(4-(4-(1-(4-hydroxyphenyl)-2-phenylbut-1-en-1-yl)phenyl)piperazine-1-carbonyl)piperidin-4-yl)methyl)piperazin-1-yl)-1-oxoisoindolin-2-yl)piperidine-2,6-dione] | 
< 10 | < 10 | > 90 | < 10 | CC/C(=C(/c1ccc(B(O)O)cc1)c1ccc(N2CCN(C(=O)N3CCC(CN4CCN(c5ccc6c(c5)CN(C5CCC(=O)NC5=O)C6=O)CC4)CC3)CC2)cc1)c1ccccc1 (stereo not drawn) [Compound 116, (E)-(4-(1-(4-(4-(4-((4-(2-(2,6-dioxopiperidin-3-yl)-1-oxoisoindolin-5-yl)piperazin-1-yl)methyl)piperidine-1-carbonyl)piperazin-1-yl)phenyl)-2-phenylbut-1-en-1-yl)phenyl)boronic acid] | 
